≈ marks a conversion by molar mass, not a printed value.
Key:
[1] = Inhibition of recombinant full-length C-terminal His6-tagged Escherichia coli DNA topoisomerase 4 subunit ParC/ParE using kinetoplast DNA as substrate preincubated for 30 mins followed by substrate addition and measured after 1 hr in presence of ATP by size exclusion chromatography
[2] = Dose normalized AUC in rat at 10 mg/kg, po measured up to 24 hrs by LC-MS/MS analysis; type: ADME, organism-based; conditions: in vivo
[3] = Dose normalized Cmax in rat at 10 mg/kg, po measured up to 24 hrs by LC-MS/MS analysis; type: ADME, organism-based; conditions: in vivo
[4] = Tmax in rat at 10 mg/kg, po measured up to 24 hrs by LC-MS/MS analysis; type: ADME, organism-based; conditions: in vivo
Escherichia coli [5] = experiment: Bacteriostatic activity against Escherichia coli ATCC 25922 infected in mouse model of neutropenic thigh infection assessed as static dose compound administered subcutaneously 2 hrs post infection and measured after 24 hrs by serial dilution method; type: functional
in vivo = conditions: mouse, po, 10 mg/kg
Escherichia coli [6] = experiment: Antibacterial activity against wild type Escherichia coli ATCC 25922 at pH 7.4 by CLSI-based broth microdilution assay; type: functional
Pseudomonas aeruginosa [7] = experiment: Antibacterial activity against wild type Pseudomonas aeruginosa PAO1 K767 by CLSI-based broth microdilution assay; type: functional
[8] = Solubility of the compound in pH 7 PBS incubated for 24 hrs under gently shaking condition by UPLC/UV/CLND/MS analysis; type: physicochemical; conditions: for solubility at 24 h: PBS, pH 7
[9] = n-Octanol-PBS buffer partition coefficient, log D of the compound at pH 7.4 after overnight incubation by LC/UV/qTOF analysis; type: physicochemical
Klebsiella pneumoniae = experiment: Antibacterial activity against wild type Klebsiella pneumoniae ATCC 43816 by CLSI-based broth microdilution assay; type: functional
Pseudomonas aeruginosa [10] = experiment: Antibacterial activity against Pseudomonas aeruginosa K1542/K767 harboring MexB/MexXY deletion mutant by CLSI-based broth microdilution assay; type: functional
Pseudomonas aeruginosa [11] = experiment: Antibacterial activity against Pseudomonas aeruginosa NB52023 harboring gyrA T83I mutant/ParC S87L mutant by CLSI-based broth microdilution assay; type: functional
Escherichia coli [12] = experiment: Antibacterial activity against Escherichia coli BW25113/JW0451-2 harboring AcrB deletion mutant by CLSI-based broth microdilution assay; type: functional
[13] = Protein binding in CD1 mouse plasma at 10 uM incubated for 4 hrs under shaking condition by LC-MS/MS analysis; type: ADME, cell-free; conditions: read-out: PPB (converted)
[14] = Protein binding in Sprague-Dawley rat plasma at 10 uM incubated for 4 hrs under shaking condition by LC-MS/MS analysis; type: ADME, cell-free; conditions: read-out: PPB (converted)
[15] = Protein binding in pooled human plasma at 10 uM incubated for 4 hrs under shaking condition by LC-MS/MS analysis; type: ADME, cell-free; conditions: read-out: PPB (converted)
[16] = molecular target: Voltage-gated inwardly rectifying potassium channel KCNH2 (Homo sapiens, UniProt Q12809); experiment: Inhibition of human ERG expressed in CHOK1 cells by QPatch automated patch-clamp assay; type: cell-based, CHO-K1
Voltage-gated inwardly rectifying potassium channel KCNH2, sequence (Q12809 whole entry): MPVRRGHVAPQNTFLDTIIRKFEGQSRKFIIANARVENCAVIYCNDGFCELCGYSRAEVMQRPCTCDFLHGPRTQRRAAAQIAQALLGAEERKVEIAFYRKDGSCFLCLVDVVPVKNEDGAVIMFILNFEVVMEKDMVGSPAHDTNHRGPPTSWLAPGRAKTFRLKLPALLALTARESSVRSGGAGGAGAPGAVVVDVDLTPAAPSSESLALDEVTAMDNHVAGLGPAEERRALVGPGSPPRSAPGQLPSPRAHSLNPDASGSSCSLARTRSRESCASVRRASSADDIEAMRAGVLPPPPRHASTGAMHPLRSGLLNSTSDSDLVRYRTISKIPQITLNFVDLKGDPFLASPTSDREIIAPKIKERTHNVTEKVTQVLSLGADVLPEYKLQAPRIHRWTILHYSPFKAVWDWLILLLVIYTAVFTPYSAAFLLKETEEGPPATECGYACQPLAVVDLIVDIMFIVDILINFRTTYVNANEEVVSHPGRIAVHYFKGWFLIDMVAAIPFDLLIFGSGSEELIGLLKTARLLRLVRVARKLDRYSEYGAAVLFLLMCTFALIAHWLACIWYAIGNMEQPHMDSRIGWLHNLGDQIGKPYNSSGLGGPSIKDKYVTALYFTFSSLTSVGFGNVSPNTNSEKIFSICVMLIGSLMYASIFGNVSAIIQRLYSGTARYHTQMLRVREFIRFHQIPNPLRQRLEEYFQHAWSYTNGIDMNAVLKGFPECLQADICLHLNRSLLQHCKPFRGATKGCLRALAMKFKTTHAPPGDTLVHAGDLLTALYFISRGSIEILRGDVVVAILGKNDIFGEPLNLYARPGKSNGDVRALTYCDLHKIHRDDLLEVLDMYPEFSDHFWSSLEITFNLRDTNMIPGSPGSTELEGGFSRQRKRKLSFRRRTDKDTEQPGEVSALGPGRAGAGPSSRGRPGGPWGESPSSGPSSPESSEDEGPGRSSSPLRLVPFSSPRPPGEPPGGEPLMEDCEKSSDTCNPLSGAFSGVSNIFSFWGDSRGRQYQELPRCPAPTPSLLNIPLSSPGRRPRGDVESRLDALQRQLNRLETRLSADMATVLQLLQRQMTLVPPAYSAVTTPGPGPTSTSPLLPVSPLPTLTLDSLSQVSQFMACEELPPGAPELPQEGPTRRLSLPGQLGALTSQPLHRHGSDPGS

[17] = Efflux ratio of apparent permeability in human Caco2 cells at 10 uM after 2 hrs by LC-MS/MS analysis; type: ADME, cell-based; conditions: Caco-2
[18] = Intrinsic clearance in rat liver microsomes at 1 uM in presence of NADPH and measured up to 30 mins by LC-MS/MS analysis; type: ADME, Microsome; conditions: read-out: CLH
[19] = Intrinsic clearance in human liver microsomes at 1 uM in presence of NADPH and measured up to 30 mins by LC-MS/MS analysis; type: ADME, Microsome; conditions: read-out: CLH
Escherichia coli [20] = experiment: Antibacterial activity against wild type Escherichia coli ATCC 25922 at pH 5.8 by CLSI-based broth microdilution assay; type: functional
Escherichia coli [21] = experiment: Ratio of MIC for antibacterial activity against wild type Escherichia coli ATCC 25922 at pH 5.8 to MIC for antibacterial activity against wild type Escherichia coli ATCC 25922 at pH 7.4; type: functional
[22] = Selectivity ratio of MIC for wild type Escherichia coli ATCC 25922 to MIC for Escherichia coli BW25113/JW0451-2 harboring AcrB deletion mutant; type: functional
[23] = Photoirradiation factor, ratio of IC50 for BALB/c mouse 3T3 cells under dark condition to IC50 for BALB/c mouse 3T3 cells under 5 J/cm2 sunlight irradiation by neutral red uptake assay; type: ADME, cell-based, NIH3T3; conditions: BALB/c 3T3 cells, read-out: Ratio IC50
NIH3T3 = experiment: Phototoxicity against BALB/c mouse 3T3 cells assessed as reduction in cell viability preincubated for 1 hr followed by 5 J/cm2 UVA sunlight irradiation for 50 mins and subsequent replacement of medium and measured after 24 hrs by neutral red uptake assay; type: cell-based; conditions: NIH3T3, light or radiation study
[24] = Dissociation constant, pKa of the compound by UV metric method; type: physicochemical
DNA gyrase = DNA gyrase (Escherichia coli, UniProt P0AES4+P0AES6); experiment: Inhibition of recombinant full-length C-terminal His6-tagged Escherichia coli DNA gyrase AB supercoiling activity using relaxed DNA as substrate preincubated for 30 mins followed by substrate addition and measured after 2 hrs in presence of ATP by size exclusion HPLC analysis; type: protein-complex assay
[25] = Selectivity ratio of MIC for Pseudomonas aeruginosa NB52023 harboring gyrA T83I mutant/ParC S87L mutant to MIC for Pseudomonas aeruginosa K1542/K767 harboring MexB/MexXY deletion mutant; type: functional
[26] = Dark toxicity in BALB/c mouse 3T3 cells assessed as reduction in cell viability incubated for 1 hr prior to 50 mins incubation under dark condition followed by replacement of medium and measured after 24 hrs by neutral red uptake assay; type: cell-based, NIH3T3; conditions: BALB/c 3T3 cells

Compound | MIC (Escherichia coli [6]) [µg/mL] | MIC (Pseudomonas aeruginosa [7]) [µg/mL] | MIC (Klebsiella pneumoniae) [µg/mL] | MIC (Pseudomonas aeruginosa [10]) [µg/mL] | MIC (Pseudomonas aeruginosa [11]) [µg/mL] | MIC (Escherichia coli [12]) [µg/mL] | MIC (Escherichia coli [20]) [µg/mL] | also measured
O=C(O)c1cn(C2CC2)c2cc(N3CCNCC3)c(F)cc2c1=O [CIPROFLOXACIN] | – | – | – | – | – | – | – | IC50 [1]: 2710 nM; AUC/dose [2]: 0.29 µM·h/mg/kg; Cmax/dose [3]: 0.14 µM/mg/kg; Tmax [4]: 30 min; Activity (Escherichia coli [5]): 6.4 mg/kg/day; Tmax at 24 h (in vivo): 15 min
Cc1c(N2CC[C@@H]([C@H](C)N)C2)c(F)cc2c(CN)cc(=O)n(C3CC3)c12 | 1 (≈ 2.79 µM) | 2 (≈ 5.58 µM) | 4 (≈ 11.2 µM) | 0.5 (≈ 1.39 µM) | 2 (≈ 5.58 µM) | 0.06 (≈ 0.167 µM) | > 32 | solubility at 24 h [8]: > 555 µg/mL; logD [9]: -0.29; fraction unbound at 4 h, 10 µM [13]: 0.44; fraction unbound at 4 h, 10 µM [14]: 0.82; fraction unbound at 4 h, 10 µM [15]: 0.83; IC50 [16]: > 300000 nM; efflux ratio at 2 h, 10 µM [17]: 18; microsomal CLint at 1 µM [18]: < 7.7 µL/min/mg; microsomal CLint at 1 µM [19]: 14 µL/min/mg; Ratio (Escherichia coli [21]): >=64; Selectivity ratio [22]: 16
Cc1c(N2CC[C@H](O)C2)c(F)cc2c(CN)cc(=O)n(C3CC3)c12 | 0.5 (≈ 1.51 µM) | 4 (≈ 12.1 µM) | 1 (≈ 3.02 µM) | 0.25 (≈ 0.754 µM) | 1 (≈ 3.02 µM) | ≤ 0.03 | 8 (≈ 24.1 µM) | Ratio (Escherichia coli [21]): 16
Cc1c(N2CC[C@H](N)C2)c(F)cc2c(CN)cc(=O)n(C3CC3)c12 | 2 (≈ 6.05 µM) | 4 (≈ 12.1 µM) | 2 (≈ 6.05 µM) | 0.5 (≈ 1.51 µM) | 2 (≈ 6.05 µM) | 0.5 (≈ 1.51 µM) | > 32 | selectivity ratio [23]: 1.7; IC50 (NIH3T3): 288000 nM; Ratio (Escherichia coli [21]): >=32
Cc1c(N2CC[C@@H]([C@H](C)N)C2)c(F)cc2c(O)cc(=O)n(C3CC3)c12 | > 32 | > 32 | > 32 | > 32 | > 32 | 16 (≈ 46.3 µM) | – | pKa [24]: 5.7
Cc1c(-c2cc(F)c(N)cc2F)c(F)cc2c(CN)cc(=O)n(C3CC3)c12 | 0.25 (≈ 0.67 µM) | 8 (≈ 21.4 µM) | 1 (≈ 2.68 µM) | 2 (≈ 5.36 µM) | 8 (≈ 21.4 µM) | ≤ 0.03 | – | solubility ([8]; buffer, pH 7, 24 h): Insoluble
Cc1c(N2CC[C@@H]([C@H](C)N)C2)c(F)cc2c(=O)n(N)c(=O)n(C3CC3)c12 | 1 (≈ 2.77 µM) | 4 (≈ 11.1 µM) | 2 (≈ 5.53 µM) | 1 (≈ 2.77 µM) | 2 (≈ 5.53 µM) | – | – | IC50 [1]: 220 nM
C[C@@H]1CN(c2c(F)c(N)c3c(=O)c(C(=O)O)cn(C4CC4)c3c2F)C[C@H](C)N1 [SPARFLOXACIN] | – | – | – | – | – | – | – | selectivity ratio [23]: > 82
Cc1c(N2CC[C@@H]([C@H](C)N)C2)c(F)cc2ccc(=O)n(C3CC3)c12 | 1 (≈ 3.04 µM) | 16 (≈ 48.6 µM) | 4 (≈ 12.1 µM) | 4 (≈ 12.1 µM) | 8 (≈ 24.3 µM) | 0.06 (≈ 0.182 µM) | 16 (≈ 48.6 µM) | solubility at 24 h [8]: 498 µg/mL (≈ 1510 µM); logD [9]: 0.74; IC50 (DNA gyrase): 430 nM; IC50 [1]: 390 nM; fraction unbound at 4 h, 10 µM [13]: 0.19; fraction unbound at 4 h, 10 µM [14]: 0.25; fraction unbound at 4 h, 10 µM [15]: 0.1; microsomal CLint at 1 µM [18]: 10 µL/min/mg; microsomal CLint at 1 µM [19]: < 7.7 µL/min/mg
Cc1c(N2CC[C@@H]([C@H](C)N)C2)c(F)cc2c(C(=O)O)cc(=O)n(C3CC3)c12 | > 32 | > 32 | > 32 | > 32 | > 32 | – | – | pKa [24]: 2.2
Cc1c(N2CC[C@@H]([C@H](C)N)C2)c(F)cc2cc(C(=O)O)c(=O)n(C3CC3)c12 | 4 (≈ 10.7 µM) | – | 8 (≈ 21.4 µM) | – | 64 (≈ 171 µM) | – | – | IC50 (DNA gyrase): 2910 nM; IC50 [1]: 4800 nM; Selectivity ratio [25]: 8
Cc1c(N2CC3CC3(N)C2)c(F)cc2c(CN)cc(=O)n(C3CC3)c12 (stereo unspecified) | 0.25 (≈ 0.73 µM) | 4 (≈ 11.7 µM) | 0.5 (≈ 1.46 µM) | 0.5 (≈ 1.46 µM) | 1 (≈ 2.92 µM) | 0.06 (≈ 0.175 µM) | 32 (≈ 93.5 µM) | selectivity ratio [23]: 104; IC50 (NIH3T3): 3030 nM; IC50 at 110 min [26]: 316000 nM; Ratio (Escherichia coli [21]): 128; Selectivity ratio [22]: 4
Cc1c(N2CC3CC3(N)C2)c(F)cc2c(CN)c(O)c(=O)n(C3CC3)c12 (stereo unspecified) | 0.5 (≈ 1.4 µM) | 2 (≈ 5.58 µM) | 1 (≈ 2.79 µM) | 0.5 (≈ 1.4 µM) | 2 (≈ 5.58 µM) | 0.25 (≈ 0.698 µM) | – | –
COc1cc(=O)n(C2CC2)c2c(C)c(N3CC[C@@H]([C@H](C)N)C3)c(F)cc12 | 32 (≈ 89 µM) | 32 (≈ 89 µM) | 16 (≈ 44.5 µM) | 8 (≈ 22.3 µM) | 16 (≈ 44.5 µM) | 1 (≈ 2.78 µM) | – | –
Cc1c(CN)c2cc(F)c(N3CC4CC4(N)C3)c(C)c2n(C2CC2)c1=O (stereo unspecified) | 0.25 (≈ 0.701 µM) | 8 (≈ 22.4 µM) | 1 (≈ 2.81 µM) | 1 (≈ 2.81 µM) | 2 (≈ 5.61 µM) | 0.125 (≈ 0.351 µM) | – | –
